Experimental data: PubChem BioAssay AID1963835 (Molecular Pharmacology Branch, DTP, NCI, 2024)
Where “and” joins values, the source holds several entries; their conditions need not be identical. Equal values may be shown once.

Test system: 699152-130-R-J1-PDC complex spheroid viability
Assay: Anticancer human tumor 699152-130-R-J1-PDC patient-derived pancreatic carcinoma cell line growth inhibition [POLQ]
Conditions: for viability, T/C: stronger effect = lower value
Method: Multicellular complex tumor spheroid response to Polymerase (POL) inhibitors (novobiocin, ART-558, RP6685) in combination with a variety of drugs and investigational agents in selected tumor cell lines
The POL inhibitors (novobiocin, ART-558, and RP6685) were evaluated both individually and in combination with standard of care and investigational anticancer small molecules within a complex spheroid model of solid tumors. . Complex spheroids include a stromal component modeled by human endothelial cells (HUVEC) and fibroblasts modeled by human mesenchymal stem cells (MSCs). The concentration ranges selected for each drug and investigational agent were based upon clinically achievable concentrations if the clinical Cmax of the agent was known.
Compounds. The drugs and investigational agents: novobiocin (NSC847541), ART-558 (NSC835418), RP-6685 (NSC848927), peposertib (NSC802822), ceralasertib (NSC780249), elimusertib (NSC800525), camonsertib (NSC841442), AZD-1390 (NSC803789), olaparib (NSC753686), talazoparib (NSC767125), rucaparib (NSC756644), sotorasib (NSC818433), MRTX-1133 (NSC836407), SN-38 (NSC673596), topotecan (NSC609699), epotoside (NSC141540), doxorubicin (NSC123127), gemcitabine (NSC613327), 5-fluorouracil (NSC19893), paclitaxel (NSC125973), vemurafenib (NSC761431), MSA-2 (NSC828583), SN-011 (NSC837082), adavosertib (NSC754352), prexasertib (NSC758257), carboplatin (NSC241240) and oxaliplatin (NSC266046), were obtained from the National Cancer Institute (NCI) Developmental Therapeutics Program Chemical Repository (21). The FDA-approved anticancer drug set is available from the Developmental Therapeutics Program at https://dtp.cancer.gov/organization/dscb/obtaining/. […] The stock solutions were prepared in dimethyl sulfoxide (DMSO, Sigma-Aldrich, St. Louis, MO, cat. D2650), except for the platinum compounds which were prepared in saline (Quality Biological, Gaithersburg, MD, cat. 114-055-101), at 800-fold the tested concentration and stored at -70 degrees C prior to their use. All drugs and investigational agents were tested over a range starting from a high concentration at or near the clinical Cmax and decreasing in half-log increments. If the clinical Cmax for an agent had not been determined, the highest concentration tested was 10 microM, except for SN-38, which was tested at a high concentration of 1 microM.
Cell Culture. All cells were maintained in an incubator at 37 degrees C and 5% CO2 with 95% humidity. The PDC lines were cultured according to standard operating procedures established by the NCI PDMR (https://pdmr.cancer.gov). Table 3 of the manuscript, lists the cell lines along with the number of the three cell types plated to form the mct-spheroids and media for tumor cell growth. After thawing, all PDC lines, except 997537-175-T-J1-PDC and 415267-285-R-J2-PDC, were cultured in Matrigel-coated flasks prepared with a working solution of 1X Ham's F-12 nutrient mix, without supplementation (Thermo Fisher Scientific, cat. 11765054), 100 U/mL penicillin-streptomycin (Thermo Fisher Scientific, cat. 15140122), and 2.5% Matrigel (Corning Inc., Corning, NY, cat. 354248) for the first three passages. The two PDC lines 997537-175-T-J1-PDC and 415267-285-R-J2-PDC were cultured on uncoated flasks. The 857933-349-R-J2-PDC line was cultured in 6C/Colon 1B media containing advanced DMEM/F-12 (Thermo Fisher Scientific, cat. 12634028), 10 mM HEPES (Thermo Fisher Scientific, cat. 15630080), 1X GlutaMAX supplement (Thermo Fisher Scientific, cat. 35050061), 0.1 mg/mL primocin (InvivoGen, San Diego, CA, cat. ant-pm-2), 10% defined fetal bovine serum, heat inactivated (HyClone Laboratories Inc., Logan, UT, cat. SH30070.03HI), 50% L-WRN conditioned media (ATCC, cat. CRL-3276), 1.25 mM N-Acetyl-L-cysteine (Sigma-Aldrich, cat. A9165), 10 mM nicotinamide (Sigma-Aldrich, cat. N0636), 1X B-27 supplement (Thermo Fisher Scientific, cat. 17504044), 1X N-2 supplement (Thermo Fisher Scientific, cat. […]

[1] = curve of first compound, second compound 0.0316 µM
[2] = curve of first compound, second compound 0.1 µM
[3] = curve of first compound, second compound 0.316 µM
[4] = curve of first compound, second compound 1 µM
[5] = curve of first compound, second compound 3.16 µM
[6] = curve of first compound, second compound 10 µM
[7] = second compound 0.0316 µM, first compound 0.0316 µM
[8] = second compound 0.0316 µM, first compound 0.1 µM
[9] = second compound 0.0316 µM, first compound 0.316 µM
[10] = second compound 0.0316 µM, first compound 1 µM
[11] = second compound 0.1 µM, first compound 0.0316 µM
[12] = second compound 0.1 µM, first compound 0.1 µM
[13] = second compound 0.1 µM, first compound 0.316 µM
[14] = second compound 0.1 µM, first compound 1 µM
[15] = second compound 0.316 µM, first compound 0.0316 µM
[16] = second compound 0.316 µM, first compound 0.1 µM
[17] = second compound 0.316 µM, first compound 0.316 µM
[18] = second compound 0.316 µM, first compound 1 µM
[19] = second compound 1 µM, first compound 0.0316 µM
[20] = second compound 1 µM, first compound 0.1 µM
[21] = second compound 1 µM, first compound 0.316 µM
[22] = second compound 1 µM, first compound 1 µM
[23] = second compound 3.16 µM, first compound 0.0316 µM
[24] = second compound 3.16 µM, first compound 0.1 µM
[25] = second compound 3.16 µM, first compound 0.316 µM
[26] = second compound 3.16 µM, first compound 1 µM
[27] = second compound 10 µM, first compound 0.0316 µM
[28] = second compound 10 µM, first compound 0.1 µM
[29] = second compound 10 µM, first compound 0.316 µM
[30] = second compound 10 µM, first compound 1 µM
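Further: spheroids exposed to agents for 7 days before viability reading.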
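Wherever viability, T/C is given: percent of DMSO vehicle control viability so 100% = vehicle and 0% = no viable signal.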

CCCS(=O)(=O)Nc1ccc(F)c(C(=O)c2c[nH]c3ncc(-c4ccc(Cl)cc4)cc23)c1F + Cc1cccc(N(C)C(=O)C2C(O)CCN2c2nc(C)cc(C(F)(F)F)c2C#N)c1
IC50 [1]: 8.18 µM | IC50 [2]: 8.55 µM | IC50 [3]: 8.18 µM | IC50 [4]: 8.6 µM | IC50 [5]: 8.56 µM | IC50 [6]: 8.17 µM | viability, T/C [7]: 110% | viability, T/C [8]: 101% | viability, T/C [9]: 120% | viability, T/C [10]: 162% | viability, T/C (second compound 0.0316 µM, first compound 3.16 µM): 175% | viability, T/C (second compound 0.0316 µM, first compound 10 µM): 32.2% | viability, T/C [11]: 105% | viability, T/C [12]: 103% | viability, T/C [13]: 126% | viability, T/C [14]: 143% | viability, T/C (second compound 0.1 µM, first compound 3.16 µM): 199% | viability, T/C (second compound 0.1 µM, first compound 10 µM): 36.5% | viability, T/C [15]: 103% | viability, T/C [16]: 99.5% | viability, T/C [17]: 125% | viability, T/C [18]: 159% | viability, T/C (second compound 0.316 µM, first compound 3.16 µM): 195% | viability, T/C (second compound 0.316 µM, first compound 10 µM): 31.6% | viability, T/C [19]: 109% | viability, T/C [20]: 112% | viability, T/C [21]: 141% | viability, T/C [22]: 152% | viability, T/C (second compound 1 µM, first compound 3.16 µM): 172% | viability, T/C (second compound 1 µM, first compound 10 µM): 36.6% | viability, T/C [23]: 124% | viability, T/C [24]: 112% | viability, T/C [25]: 118% | viability, T/C [26]: 140% | viability, T/C (second compound 3.16 µM, first compound 3.16 µM): 181% | viability, T/C (second compound 3.16 µM, first compound 10 µM): 36.5% | viability, T/C [27]: 117% | viability, T/C [28]: 103% | viability, T/C [29]: 134% | viability, T/C [30]: 146% | viability, T/C (second compound 10 µM, first compound 3.16 µM): 175% | viability, T/C (second compound 10 µM, first compound 10 µM): 31.7%

CCc1cc2c(N3CCc4c(cc(Cn5ccnc5)cc4-c4cn(C)nc4C(F)(F)F)C3=O)cc(C)nc2c(OC)n1
viability, T/C (compound 0.0316 µM): 102% and 78.7% and 85.8% | viability, T/C (compound 0.1 µM): 92.1% and 90.3% and 81.5% | viability, T/C (compound 0.316 µM): 89.2% and 94.7% and 93.9% | viability, T/C (compound 1 µM): 95.1% and 94.6% and 98.4% | viability, T/C (compound 3.16 µM): 102% and 105% (2×) | viability, T/C (compound 10 µM): 97% and 99% and 107% | IC50 (curve of compound): > 10 µM

CC1COCCN1c1cc(C2(O)CC3CCC(C2)O3)c2cnn(-c3ccn[nH]3)c2n1 (stereo not drawn)
viability, T/C (compound 0.0316 µM): 85.2% and 93.5% and 88.1% | viability, T/C (compound 0.1 µM): 80.7% and 83.5% and 80% | viability, T/C (compound 0.316 µM): 65.9% and 63.9% and 67.3% | viability, T/C (compound 1 µM): 56% and 53.3% and 57.5% | viability, T/C (compound 3.16 µM): 47.1% and 48.7% and 44.4% | viability, T/C (compound 10 µM): 35.8% and 33.2% and 36.5% | IC50 (curve of compound): 1.99 µM and 1.72 µM and 1.94 µM

CCc1c2c(nc3ccc(O)cc13)-c1cc3c(c(=O)n1C2)COC(=O)[C@]3(O)CC + COC1C(OC(N)=O)C(O)C(Oc2ccc3c(O)c(NC(=O)c4ccc(O)c(CC=C(C)C)c4)c(=O)oc3c2C)OC1(C)C
IC50 [1]: 0.0226 µM | IC50 [2]: 0.0213 µM | IC50 [3]: 0.025 µM | IC50 [4]: 0.0405 µM | IC50 [5]: 0.0256 µM | IC50 [6]: 0.0249 µM | viability, T/C (second compound 0.0316 µM, first compound 0.00316 µM): 73.5% | viability, T/C (second compound 0.0316 µM, first compound 0.01 µM): 51.3% | viability, T/C [7]: 43.5% | viability, T/C [8]: 41.9% | viability, T/C [9]: 24.4% | viability, T/C [10]: 9.02% | viability, T/C (second compound 0.1 µM, first compound 0.00316 µM): 79.7% | viability, T/C (second compound 0.1 µM, first compound 0.01 µM): 49.5% | viability, T/C [11]: 45.1% | viability, T/C [12]: 37.3% | viability, T/C [13]: 26.5% | viability, T/C [14]: 10.1% | viability, T/C (second compound 0.316 µM, first compound 0.00316 µM): 79% | viability, T/C (second compound 0.316 µM, first compound 0.01 µM): 46.1% | viability, T/C [15]: 47.6% | viability, T/C [16]: 43.4% | viability, T/C [17]: 22% | viability, T/C [18]: 12.9% | viability, T/C (second compound 1 µM, first compound 0.00316 µM): 66.9% | viability, T/C (second compound 1 µM, first compound 0.01 µM): 57% | viability, T/C [19]: 51.8% | viability, T/C [20]: 45% | viability, T/C [21]: 23.1% | viability, T/C [22]: 7.35% | viability, T/C (second compound 3.16 µM, first compound 0.00316 µM): 66.7% | viability, T/C (second compound 3.16 µM, first compound 0.01 µM): 51.6% | viability, T/C [23]: 46.9% | viability, T/C [24]: 40.4% | viability, T/C [25]: 28.5% | viability, T/C [26]: 7.68% | viability, T/C (second compound 10 µM, first compound 0.00316 µM): 70.5% | viability, T/C (second compound 10 µM, first compound 0.01 µM): 55.7% | viability, T/C [27]: 43.6% | viability, T/C [28]: 39.6% | viability, T/C [29]: 28% | viability, T/C [30]: 7.11%
